Assay results reported in patent US11439628B2, “Use of non-steroidal mineralocorticoid receptor antagonists alone or in combination for the treatment of muscular or neuromuscular diseases” (Bayer Aktiengesellschaft, priority 2018, dated 2022).

Columns and labels:
MDX-mice [1] = assay: EDL eccentric contractions (ex vivo contractility of isolated muscle from treated mice); type: in vivo; conditions: for Ecc2 (% Ecc1) / Ecc5 (% Ecc1) / Post-rest Ecc6 (% Ecc1): EDL of MDX-mice treated 16 weeks via chow (150 ppm BAY 41-2272 or 100 ppm Finerenone), Mean ± SEM; for Ecc2 (% Ecc1): 2nd eccentric contraction; for Ecc5 (% Ecc1): 5th eccentric contraction; for Post-rest Ecc6 (% Ecc1): 6th eccentric contraction after 15 minutes of rest; for Effect on muscle strength (EDL eccentric contractions), in words: MDX-mice treated 16 weeks
From the text: (§1) Preferentially mice were used, especially transgenic mice (B6.Cg-^Terctm1Rdp Dmd^mdx-4Cv/BlauJ; Jackson Laboratories, strain Nr.: 023535; Dystrophin-deficient, utrophin haplo-insufficient (utrn +/−; mdx)). These so called MDX mice carry a mutation in the dystrophin gene which reflects the phenotype and clinical situation of patients with muscular dystrophies (Sacco et al.; Cell. 2010 Dec. 23; 143(7):1059-71, Mourkioti et al. Nat Cell Biol. 2013 August; 15(8):895-904).
(§2) As read-outs were preferentially used: • In vitro, hydroxyproline measurement to assess fibrotic tissue. To analyze the collagen content in tissue samples, hydroxyproline assays were performed. After digestion of the tissue (e.g. heart and muscle) in 6M HCl for three hours at 120° C., chloramine T (0.06 M) was added and samples were mixed and incubated for 20 min at room temperature. 3.15 M perchloric acid and 20% p-dimethylaminobenzaldehyde were added and samples were incubated for additional 20 min at 60° C. The absorbance was determined at 557 nm. • In vitro, semiquantitative RT/PCR (TaqMan PCR) was used to assess gene expression. Mice were euthanized and hearts and muscles (e.g. EDL=extensor digitorum longus muscle, diaphragm) were collected. Total RNA was isolated and gene expression was semiquantified after reverse transcription (RT) reaction via TaqMan polymerase chain reaction (PCR). • In vitro, histopathology to assess heart and muscle damage. Mice were euthanized and hearts and muscles (e.g. EDL, diaphragm) were collected. Cryosections were prepared and stained with Hematoxylin and Eosin (H&E) to assess overall histopathology. • Ex vivo, contractility measurements of muscle contraction in isolated muscles (e.g. EDL, diaphragm) to assess muscle function and contractility. Isolated muscles were stretched to optimal length using twitch contractions (evoked by a single 4 ms pulse). After 10 minutes, a tetanus contraction was performed (150 Hz for 250 ms). After another 5 min rest period, 6 eccentric contractions (150 Hz for 450 ms, subjected to a 3% stretch for the final 200 ms of contraction) were done with two minutes of rest between the first 5 stimulations and 15 minutes of rest between the fifth and sixth stimulation. • In vivo, non-invasive echocardiography and computer tomography to assess heart and cardiovascular function. Mice were anaesthetized and heart structure and function was assessed non-invasively by using the echocardiograph type Vevo2100. In addition, cardiac function was investigated in anesthetized mice by using magnetic resonance imaging (MRI) technique on a 9.4 or 11.7 Tesla 30 mm bore system (Bruker Biospin) together with standard electrocardiographic (ECG). Myocardial strain and strain rate were assessed using vector-based tracking software (Vector Velocity Imaging, Siemens). • In vivo, invasive left-ventricular function and pressure-volume relationship to assess heart and cardiovascular function. Invasive left-ventricular hemodynamics were performed in anaesthetized mice using a pressure catheter and a PN loop catheter. • In vivo assessment of muscle force (Hanging wire test, four limb hanging test, grip strength test) to asses muscle function. For the hanging wire and four limb hanging test, conscious mice are freely hanging on a grid and hanging time is recorded and corrected for body weight of the mice. The grip strength (GS) measurements to investigate front-leg muscle strength were performed in conscious mice by using a grip strength meter (Columbus Instruments). Mice were trained to hold on with their front paws on a wire mesh grid and carefully pulled backwards. This procedure was repeated up to 5 times with one minute breaks between measurements and the maximal power in Newton (N) was registered. The highest grid strength value (GS) in Newton was reported and related to body weight (BW) in mg. […] (Table 1). • In vivo assessment of physical capacity was assessed. […]

MDX-mice [2] = assay: Endocardial circumferential peak systolic strain rate at the base of the heart (MRI, vector-based tracking); type: in vivo; conditions: for Effect on heart function (systolic strain rate), in words: MDX-mice treated 16 weeks; for Base_PeakSysSR_Lat (endocardial circumferential S−1) / Base_PeakSysSR_Mean (endocardial circumferential S−1) / Base_PeakSysSR_Septum (endocardial circumferential S−1): MDX-mice treated 16 weeks via chow (150 ppm BAY 41-2272 or 100 ppm Finerenone), base of the heart, Mean ± SEM; for Base_PeakSysSR_Lat (endocardial circumferential S−1): lateral; for Base_PeakSysSR_Mean (endocardial circumferential S−1): mean; for Base_PeakSysSR_Septum (endocardial circumferential S−1): septum
From the text: as §1, §2

MDX-mice [3] = assay: Grip strength test (front-leg muscle strength) in MDX mice; type: in vivo; conditions: for GS/BW trial 5 / GS/BW trial 1 / Grip Strength trial 1 / Grip Strength trial 5: MDX-mice treated 16 weeks via chow (150 ppm BAY 41-2272 or 100 ppm Finerenone), Mean ± SEM; for GS/BW trial 5 / GS/BW trial 1: grip strength related to body weight; for GS/BW trial 5: fatigued mice; for GS/BW trial 1: rested mice; for Grip Strength trial 1: highest force from rested mice; for Grip Strength trial 5: highest force in fatigued mice; for Effect on muscle strength (grip strength), in words: MDX-mice treated 16 weeks, each compound alone; for Efficacy of monotherapy compared with combination of steroidal MR antagonist (spironolactone) and ACE inhibitor (lisinopril): regarding grip strength, base myocardial strain rate and forces after lengthening contractions of the EDL, comparator from Lowe et al.
From the text: as §1, §2

[4] = rats, [14C]-labeled; Kolkhof et al. 2014; cited from earlier work
DMD boys = conditions: added to background ACE inhibitor or ARB therapy; at 12 months; Raman et al. 2015; cited from earlier work

Compound	Ecc2 (% Ecc1) (MDX-mice [1])	Ecc5 (% Ecc1) (MDX-mice [1])	Post-rest Ecc6 (% Ecc1) (MDX-mice [1])	Effect on muscle strength (EDL eccentric contractions), in words (MDX-mice [1])	Effect on heart function (systolic strain rate), in words (MDX-mice [2])	Base_PeakSysSR_Lat (endocardial circumferential S−1) (MDX-mice [2])	Base_PeakSysSR_Mean (endocardial circumferential S−1) (MDX-mice [2])	Base_PeakSysSR_Septum (endocardial circumferential S−1) (MDX-mice [2])	GS/BW trial 5 (MDX-mice [3])	GS/BW trial 1 (MDX-mice [3])	Grip Strength trial 1 (MDX-mice [3])	Grip Strength trial 5 (MDX-mice [3])	Effect on muscle strength (grip strength), in words (MDX-mice [3])	Efficacy of monotherapy compared with combination of steroidal MR antagonist (spironolactone) and ACE inhibitor (lisinopril) (MDX-mice [3])	Efficacy of monotherapy compared with combination of steroidal MR antagonist (spironolactone) and ACE inhibitor (lisinopril) (MDX-mice [3]; listed as (S)-4-(4-Cyano-2-methoxyphenyl)-5-ethoxy-2,8-dimethyl-1,4-dihydro-1,6-naphthyrid)	Tissue distribution into cardiac and kidney tissues [4]	Effect on left ventricular systolic function (LV circumferential strain) (DMD boys)
Nc1nc(-c2nn(Cc3ccccc3F)c3ncccc23)ncc1C1CC1 [BAY41-2272, 3-(4-amino-5-cyclopropylpyrimidin-2-yl)-1-(2-fluorobenzyl)-1H-pyrazolo[3,4-b]pyridine]	86 ± 2 % Ecc1	60 ± 5 % Ecc1	60 ± 5 % Ecc1	improvement of muscle strength	attenuation of heart function decline	0.37 ± 0.02 S−1	0.36 ± 0.02 S−1	0.39 ± 0.03 S−1	33.9 ± 0.9 mN/g	38.3 ± 1.1 mN/g	1.0 ± 0.04 N	0.9 ± 0.04 N	improvement of muscle strength				
CCOc1ncc(C)c2c1[C@H](c1ccc(C#N)cc1OC)C(C(N)=O)=C(C)N2 [Finerenone, (S)-4-(4-Cyano-2-methoxyphenyl)-5-ethoxy-2,8-dimethyl-1,4-dihydro-1,6-naphthyridin-3-carboxamid]	94 ± 5 % Ecc1	71 ± 7 % Ecc1	72 ± 6 % Ecc1	improvement of muscle strength	attenuation of heart function decline	0.39 ± 0.04 S−1	0.35 ± 0.03 S−1	0.34 ± 0.04 S−1	37.5 ± 1.1 mN/g	40.3 ± 1 mN/g	1.1 ± 0.04 N	1.1 ± 0.04 N	improvement of muscle strength	superior	as effective as	balanced distribution	
COC(=O)[C@@H]1CC2=CC(=O)CC[C@]2(C)[C@@]23O[C@@H]2C[C@@]2(C)[C@@H](CC[C@@]24CCC(=O)O4)[C@H]13 [eplerenone]																	attenuates the progressive decline in left ventricular systolic function
